Where “and” joins values, the source holds several entries; their conditions need not be identical. Equal values may be shown once.
Columns and labels:
Kal^Sec14 = target: T1, Kal^Sec14 (Rattus norvegicus, UniProt P97924, N62Y/T46S); assay: Liposome flotation binding assay (Accudenz gradient, Western blot); conditions: Suppl. Fig. 9b,c; for Densitometry values for the Western blots, Fraction 1, Ave. / Densitometry values for the Western blots, Fraction 2, Ave. / Densitometry values for the Western blots, Fraction 3, Ave. / Densitometry values for the Western blots, Fraction 4, Ave.: average, biological replication ≥ 3; for Densitometry values for the Western blots, Fraction 1 / Densitometry values for the Western blots, Fraction 2 / Densitometry values for the Western blots, Fraction 3 / Densitometry values for the Western blots, Fraction 4: individual experiments (Exp. 1-4)
T1 construct: 19.4 kDa); His6 (TEV-cleavable) (N, cleaved yes); made in house; host or cells: E. coli BL21(DE3)
Procedure: (§1) The synthetic and natural lipids used in flotation assays were purchased from Avanti Polar Lipids, Inc. (Supplementary Table 2). All powdered lipids were dissolved in chloroform per the manufacturer’s instructions. Liposomes were prepared as previously described. […] Individual test lipids were dried together with the control lipid mix under a nitrogen stream and lyophilized overnight. Each dried lipid film was reconstituted to a final concentration of 1 mM in HN buffer containing 20 mM HEPES (pH 7.4) and 150 mM NaCl. Each final lipid mixtures consisted of 52% DOPC, 20% DOPE, 5% DOPS, 15% cholesterol and 8% tested lipid; inclusion of a trace amount of fluorescent lipid (Liss Rhod PE) allowed for localization of liposomes following gradient fractionation (see below). Each lipid mixture underwent five freeze-thaw cycles separated by vigorous vortexing each time it was thawed. Using a mini-extruder, unilamellar liposomes were prepared by passing each lipid mixture 21 times through a polycarbonate membrane of 100-nm pore size. Hydrated lipid mixtures were stored at −20 °C for up to 1 month; liposomes were freshly prepared for each experiment.
(§2) Flotation assays were conducted following the protocol previously described. Accudenz (Accurate Chemical and Scientific Corp., Westbury, NY) solutions (80 and 20% weight/vol) were prepared in HN buffer. To remove any particulate material, the protein to be tested was first centrifuged at 436,000 g at 4 °C for 15 min in a TL-100 ultracentrifuge using a Beckman TLA100.2 fixed angle rotor. Freshly prepared unilamellar liposomes (50 μl) were combined with 0.2 μg of the centrifuged protein and incubated at room temperature for 30 min. The entire liposome/protein mixture was then combined with 50 μl of 80% Accudenz at the bottom of an ultracentrifuge tube and carefully mixed to completion by pipetting. The resulting mixture was overlayered with […] of 20% Accudenz and then with 50 μl of HN buffer. Samples were centrifuged at 259,000 g at 4 °C for 30 min in the same ultracentrifuge using a Beckman TLS55 swinging bucket rotor. Gradients were then divided into four 100-μl fractions, which were carefully collected from the bottom of the tube using gel loading micropipette tips. Each fraction was analyzed for liposome and protein content using spectrophotometry (546-nm excitation/571-nm emission) and Western blot, respectively. Only those assays with at least 90% of the Liss Rhod PE marker recovered in the top fraction (fraction 1) were used for Western bloting analysis.
For Western bloting analysis, equal aliquots of each gradient fraction were denatured in 1× Laemmli sample buffer, fractionated on 15% acrylamide gels, and transferred to PVDF membranes. The protein content was detected using a custom-made rabbit antibody to the Sec14 domain of Kalirin (CT302[69], 1:3000) and an HRP-tagged goat anti-rabbit IgG (H + L) secondary antibody (catalog # 31460, 1:6000; ThermoFisher Scientific). SuperSignal West chemiluminescent substrate (Thermo Scientific) and a Syngene PXi digital imaging system (Synoptics Group) were used to visualize blots, with exposures adjusted to be in the linear range. After background subtraction, bands were quantified using the GeneSys software provided with the imaging system, and data were represented as a proportion of total protein recovered. Uncropped blots, quantification of each data point and exact P-values are provided in the Source Data file. […]
a. Representative Western blots from flotation assays with Kal Sec14 alone (Control), and Kal Sec14 with the control lipid mix (Lipo) or with the lipid mix containing the indicated additional lipid. After binding and separation of liposome bound Kal Sec14 from unbound Kal Sec14 on Accudenz gradients, the protein content of four gradient fractions was dete rmined by immunoblot; liposomes were recovered from the top fraction (fraction 1). Source data are […]

KalbSec14 [1] = target: T2, KalbSec14 (Rattus norvegicus, UniProt P97924, N62Y/T46S); assay: as above; conditions: for binding of Kal^bSec14 to liposomes containing the lipid: Golgi-mixture liposomes with 8% test lipid, result in words; for Fraction 1 protein content (top fraction, liposome-bound), densitometry, Ave. / Fraction 2 protein content, densitometry, Ave. / Fraction 3 protein content, densitometry, Ave. / Fraction 4 protein content (bottom fraction, unbound), densitometry, Ave.: mean of independent experiments; for Fraction 1 protein content (top fraction, liposome-bound), densitometry: normalized to total protein recovered from each gradient
T2 construct: His6 (TEV-cleavable) (N, cleaved yes); made in house; host or cells: E. coli BL21(DE3)
Procedure: Unilamellar liposomes formed by mixing synthetic dioleoyl phospholipids and cholesterol in proportions mimicking the membranes of the trans-Golgi network (Golgi-mixture) were incubated with Kal^bSec14. An Accudenz gradient was used to separate liposome-bound proteins, which were recovered from the top of the gradient (fraction 1), from unbound proteins, which remained at the bottom (fraction 4). Protein levels in each fraction were analyzed by Western blotting with an antibody to the Sec14 domain of Kalirin.
as §1, §2
For Western bloting analysis, equal aliquots of each gradient fraction were denatured in 1× Laemmli sample buffer, fractionated on 15% acrylamide gels, and transferred to PVDF membranes. The protein content was detected using a custom-made rabbit antibody to the Sec14 domain of Kalirin (CT302[69], 1:3000) and an HRP-tagged goat anti-rabbit IgG (H + L) secondary antibody (catalog # 31460, 1:6000; ThermoFisher Scientific). SuperSignal West chemiluminescent substrate (Thermo Scientific) and a Syngene PXi digital imaging system (Synoptics Group) were used to visualize blots, with exposures adjusted to be in the linear range.

KalbSec14 [2] = target: T2, KalbSec14; assay: Isothermal titration calorimetry (preliminary); type: binding; conditions: preliminary ITC, data not shown
[3] = normalized to total protein recovered, test lipid 8% of liposome lipid
[4] = single experiments, normalized to total protein recovered, test lipid 8% of liposome lipid
[5] = single experiments, test lipid 8% of liposome lipid

CCCCCCCCCCCCCC(=O)OC[C@@H](O)COP(=O)(O)OCC(O)CO (mixture of isomers) [LPG14:0, 1-myristoyl-2-hydroxy-sn-glycero-3-phospho-(1'-rac-glycerol)]
Densitometry values for the Western blots, Fraction 1, Ave. (Kal^Sec14): 0.05 | Densitometry values for the Western blots, Fraction 2, Ave. (Kal^Sec14): 0.0118 | Densitometry values for the Western blots, Fraction 3, Ave. (Kal^Sec14): 0.0754 | Densitometry values for the Western blots, Fraction 4, Ave. (Kal^Sec14): 0.86 | Densitometry values for the Western blots, Fraction 1 (Kal^Sec14): 0.0538 and 0.045 and 0.06 | Densitometry values for the Western blots, Fraction 2 (Kal^Sec14): 0.00506 and 0.000399 and 0.03 | Densitometry values for the Western blots, Fraction 3 (Kal^Sec14): 0.0633 and 0.055 and 0.11 | Densitometry values for the Western blots, Fraction 4 (Kal^Sec14): 0.88 and 0.90 and 0.80 | binding of Kal^bSec14 to liposomes containing the lipid (KalbSec14 [1]): fail to interact | Fraction 1 protein content (top fraction, liposome-bound), densitometry, Ave. (KalbSec14 [1]; [3]): 0.05 | Fraction 2 protein content, densitometry, Ave. (KalbSec14 [1]; [3]): 0.00765 | Fraction 3 protein content, densitometry, Ave. (KalbSec14 [1]; [3]): 0.0849 | Fraction 4 protein content (bottom fraction, unbound), densitometry, Ave. (KalbSec14 [1]; [3]): 0.86 | Fraction 2 protein content, densitometry (KalbSec14 [1]; [4]): 0.00729 and 0.00538 and 0.01 | Fraction 3 protein content, densitometry (KalbSec14 [1]; [4]): 0.07 and 0.09 | Fraction 4 protein content (bottom fraction, unbound), densitometry (KalbSec14 [1]; [4]): 0.89 and 0.86 and 0.83

CCCCCCCCCCCCCC(=O)OC[C@H](COP(=O)([O-])OCC[N+](C)(C)C)OC(=O)CCCCCCCCCCCCC [DMPC, 1,2-dimyristoyl-sn-glycero-3-phosphocholine]
Densitometry values for the Western blots, Fraction 1, Ave. (Kal^Sec14): 0.03 | Densitometry values for the Western blots, Fraction 2, Ave. (Kal^Sec14): 0.01 | Densitometry values for the Western blots, Fraction 3, Ave. (Kal^Sec14): 0.11 | Densitometry values for the Western blots, Fraction 4, Ave. (Kal^Sec14): 0.85 | Densitometry values for the Western blots, Fraction 1 (Kal^Sec14): 0.0333 and 0.0235 and 0.03 | Densitometry values for the Western blots, Fraction 2 (Kal^Sec14): 0.00764 and 0.00497 and 0.0174 | Densitometry values for the Western blots, Fraction 3 (Kal^Sec14): 0.08 and 0.10 and 0.15 | Densitometry values for the Western blots, Fraction 4 (Kal^Sec14): 0.87 and 0.81 | binding of Kal^bSec14 to liposomes containing the lipid (KalbSec14 [1]): precludes binding | Fraction 1 protein content (top fraction, liposome-bound), densitometry, Ave. (KalbSec14 [1]; [3]): 0.0259 | Fraction 2 protein content, densitometry, Ave. (KalbSec14 [1]; [3]): 0.0121 | Fraction 3 protein content, densitometry, Ave. (KalbSec14 [1]; [3]): 0.11 | Fraction 4 protein content (bottom fraction, unbound), densitometry, Ave. (KalbSec14 [1]; [3]): 0.85 | Fraction 1 protein content (top fraction, liposome-bound), densitometry (KalbSec14 [1]; [5]): 0.03 and 0.0163 and 0.0322 | Fraction 3 protein content, densitometry (KalbSec14 [1]; [4]): 0.10 and 0.15 and 0.0759 | Fraction 4 protein content (bottom fraction, unbound), densitometry (KalbSec14 [1]; [4]): 0.86 and 0.83 and 0.87

CCCCCCCCCCOP(=O)([O-])OCC[N+](C)(C)C [FC10, decylphosphocholine]
ITC signal (KalbSec14 [2]): no ITC signal was observed

CCCCCCCCCCCCC(=O)OC[C@@H](O)COP(=O)(O)OC1C(O)C(O)C(O)C(O)C1O (some centres unmarked) [LPI13:0, 1-tridecanoyl-2-hydroxy-sn-glycero-3-phospho-(1'-myo-inositol)]
Densitometry values for the Western blots, Fraction 1, Ave. (Kal^Sec14): 0.0225 | Densitometry values for the Western blots, Fraction 2, Ave. (Kal^Sec14): 0.0117 | Densitometry values for the Western blots, Fraction 3, Ave. (Kal^Sec14): 0.17 | Densitometry values for the Western blots, Fraction 4, Ave. (Kal^Sec14): 0.80 | Densitometry values for the Western blots, Fraction 1 (Kal^Sec14): 0.0325 and 0.0143 and 0.02 | Densitometry values for the Western blots, Fraction 2 (Kal^Sec14): 0.00684 and 0.00931 and 0.019 | Densitometry values for the Western blots, Fraction 3 (Kal^Sec14): 0.10 and 0.16 and 0.24 | Densitometry values for the Western blots, Fraction 4 (Kal^Sec14): 0.86 and 0.82 and 0.72 | binding of Kal^bSec14 to liposomes containing the lipid (KalbSec14 [1]): fail to interact | Fraction 1 protein content (top fraction, liposome-bound), densitometry, Ave. (KalbSec14 [1]; [3]): 0.028 | Fraction 2 protein content, densitometry, Ave. (KalbSec14 [1]; [3]): 0.00535 | Fraction 3 protein content, densitometry, Ave. (KalbSec14 [1]; [3]): 0.18 | Fraction 4 protein content (bottom fraction, unbound), densitometry, Ave. (KalbSec14 [1]; [3]): 0.79 | Fraction 1 protein content (top fraction, liposome-bound), densitometry (KalbSec14 [1]; [5]): 0.0252 and 0.03 | Fraction 4 protein content (bottom fraction, unbound), densitometry (KalbSec14 [1]; [4]): 0.70 and 0.76 and 0.89

CCCCCCCCCCCCC(=O)OC[C@@H](O)COP(=O)(O)OC[C@H](N)C(=O)O [LPS13:0, 1-tridecanoyl-sn-glycero-3-phospho-L-serine]
Densitometry values for the Western blots, Fraction 1, Ave. (Kal^Sec14): 0.05 | Densitometry values for the Western blots, Fraction 2, Ave. (Kal^Sec14): 0.00866 | Densitometry values for the Western blots, Fraction 3, Ave. (Kal^Sec14): 0.09 | Densitometry values for the Western blots, Fraction 4, Ave. (Kal^Sec14): 0.86 | Densitometry values for the Western blots, Fraction 1 (Kal^Sec14): 0.07 and 0.05 and 0.025 and 0.0554 | Densitometry values for the Western blots, Fraction 2 (Kal^Sec14): 0.00695 and 0.01 and 0.00643 and 0.0108 | Densitometry values for the Western blots, Fraction 3 (Kal^Sec14): 0.07 and 0.05 and 0.16 | Densitometry values for the Western blots, Fraction 4 (Kal^Sec14): 0.86 and 0.89 and 0.90 and 0.78 | binding of Kal^bSec14 to liposomes containing the lipid (KalbSec14 [1]): fail to interact | Fraction 1 protein content (top fraction, liposome-bound), densitometry, Ave. (KalbSec14 [1]; [3]): 0.03 | Fraction 2 protein content, densitometry, Ave. (KalbSec14 [1]; [3]): 0.0069 | Fraction 3 protein content, densitometry, Ave. (KalbSec14 [1]; [3]): 0.09 | Fraction 4 protein content (bottom fraction, unbound), densitometry, Ave. (KalbSec14 [1]; [3]): 0.88 | Fraction 4 protein content (bottom fraction, unbound), densitometry (KalbSec14 [1]; [4]): 0.88 and 0.93 and 0.85 and 0.84

From publication PMC9823006 (Nature Communications, 2023)
